Measurements from ChEMBL document CHEMBL1144367, “QSAR for anti-RNA-virus activity, synthesis, and assay of anti-RSV carbonucleosides given a unified representation of spectral moments, quadratic, and topologic indices” (2005).
Values after ≈ are worked out from the molar mass of the structure shown.

Columns and labels:
Assay type in all cases: functional
Conditions in all cases: Homo sapiens
HeLa [1] = assay: Minimum inhibitory concentration against vesicular stomatitis virus was determined
HeLa [2] = assay: Minimum cytotoxicity concentration to HeLa cell line was determined
HeLa [3] = assay: Minimum inhibitory concentration against coxsackie virus B4 was determined
HeLa [4] = assay: Minimum inhibitory concentration against respiratory syncytial virus was determined

## NC1=NC2C(N=CN2[C@H]2CCCC[C@H]2CO)C(Cl)=N1 (some centres undefined)
HeLa [1]
  MIC50: > 200 µg/mL
HeLa [2]
  MCC: > 200 µg/mL
HeLa [3]
  MIC50: 120 µg/mL (≈ 423 µM)
HeLa [4]
  MIC50: 8 µg/mL (≈ 28.2 µM)

## OC[C@@H]1CCCC[C@@H]1N1C=NC2C(Cl)=NC=NC21 (some centres undefined)
HeLa [2]
  MCC: 400 µg/mL
HeLa [3]
  MIC50: > 80 µg/mL
HeLa [4]
  MIC50: > 80 µg/mL

## NC1=NC=NC2C1N=CN2[C@H]1CCCC[C@H]1CO (some centres undefined)
HeLa [2]
  MCC: 400 µg/mL
HeLa [3]
  MIC50: > 80 µg/mL
HeLa [4]
  MIC50: 3.2 µg/mL (≈ 12.8 µM)

## NC(=O)c1ncn([C@@H]2O[C@H](CO)[C@@H](O)[C@H]2O)n1 [RIBAVIRIN]
HeLa [1]
  MIC50: 16 µg/mL (≈ 65.5 µM)
HeLa [2]
  MCC: > 400 µg/mL
HeLa [3]
  MIC50: 48 µg/mL (≈ 197 µM)
HeLa [4]
  MIC50: 1.92 µg/mL (≈ 7.86 µM)
